# Reference: patent publication US20240216332A1, “METHOD AND PHARMACEUTICAL COMPOSITION FOR TREATING MYOPIA” (GRAND PHARMA (CHINA) CO., LTD., priority 2021, published 2024)
# Tests used:
# [1] = test system: form deprivation myopia guinea pigs; assay: Sorbinil and Zopolrestat in form deprivation myopia model, Example 9; conditions: FD, Sorbinil 100 μM, Zopolrestat 1 mM; for diopter or axial length parameter versus the vehicle group: each test time point (1-week, 2-week), FIG. 13; for corneal curvature, anterior chamber depth and lens thickness: FIG. 14
# [2] = test system: form deprivation myopia guinea pigs; assay: m-Hydroxy methylaniline in form deprivation myopia model, Example 10; assay type: in vivo, guinea pig; conditions: FD; for effect of preventing or treating myopia: subconjunctival injection 100 μl once daily for 1 week, atropine 0.1%
# Procedure: The efficacy was evaluated using the guinea pig in form deprivation myopia model described in this application. All subjects were measured for diopter and axial length. […] Diopter and axis length parameters were measured at the beginning and after the end of the efficacy experiment.
# [3] = test system: form deprivation myopia guinea pigs; assay: Direct eye drop administration in form deprivation myopia model, Example 7; conditions: for inhibition rate on myopia: direct eye drop 25 μl twice per day, 0.5% bendazac lysine (self-made); for elongation of axial length compared with the normal saline group: eye drop twice per day for 2 weeks, statistical difference
# Excerpt: All efficacy experiments above were repeated at least twice.
# [4] = test system: form deprivation myopia (FDM) guinea pigs; assay: Dose-response of bendazac lysine (0.01%-0.5%) in form deprivation myopia model, Example 5
# Excerpt: To be more intuitive, percentage are converted to milligram units when plotting.
# [5] = test system: form deprivation myopia guinea pigs; assay: Lysine alone and bendazac alone in form deprivation myopia model, Example 8; assay type: in vivo, guinea pig; conditions: FD; for progress of myopia (diopter becoming negative, vitreous chamber depth, axial length): subconjunctival injection 100 μl once daily for 2 weeks, equimolar (11.669 mM) preparations, FIG. 8; for ocular abnormalities / pupil, corneal curvature, anterior chamber depth and lens thickness: subconjunctival injection once daily for 2 weeks; for pupil, corneal curvature, anterior chamber depth and lens thickness: FIGS. 10 and 11; for myopia inhibition rate compared with DMSO vehicle control group: bendazac 3.3 mg/ml (11.669 mM) subconjunctival injection 100 μl once daily
# [6] = test system: lens induced myopia (LIM) guinea pigs; assay: Choroidal thickness (OCT) in LIM model, Example 6; assay type: in vivo, guinea pig; conditions: 0.5% bendazac lysine (BDL(S)) subconjunctival injection once daily for 1 week, 30-60 min after last administration
# Procedure: (§1) The lenses were purchased from Wenzhou Focusee Technology Co. Ltd. The specific parameters were: center degree 4D, base curve 16 mm, and diameter 11.8 mm. The lenses were fixed in front of the right eye (experimental eye) of the guinea pig and the left eye (fellow eye) was left untreated. […] The choroidal thickness of all eyes in the two myopia models was detected by Spectralis HRA+OCT (Heidelberg Engineering, Heidelberg, Germany) at 30-60 min after the last administration. […] The statistical method was an independent sample T-test.
# [7] = test system: guinea pigs with lens induced myopia; assay: Lens induced (LI, -4D lens) myopia model, peribulbar injection, Example 3; assay type: in vivo, guinea pig; conditions: bendazac lysine 0.5 mg/day peribulbar injection
# [8] = test system: form deprivation myopia (FDM) guinea pigs; assay: Choroidal thickness (OCT) in FDM model, Example 6; assay type: in vivo, guinea pig
# Procedure: as §1
# [9] = test system: guinea pigs with form deprivation myopia; assay: Form deprivation (FD) myopia model, peribulbar injection, Example 3; conditions: for induced myopia (diopter) / myopia inhibition rate compared with normal saline group: peribulbar injection once daily (bendazac lysine 0.5 mg/day; atropine 0.1%, 100 μL)
# [10] = m-hydroxy methylaniline 5 mM, FIG. 15
# [11] = FD, 0.5% bendazac lysine, 0.1% atropine
# [12] = LI (-4D lens), 1-week of administration
molecule,measurement,setting,value
O=C1NC(=O)[C@@]2(CCOc3ccc(F)cc32)N1 [Sorbinil],diopter or axial length parameter versus the vehicle group,[1],no significant difference
same,therapeutic effect on myopia,[1]; subconjunctival injection 100 μl once daily for 2 weeks,no therapeutic effect on myopia
same,"corneal curvature, anterior chamber depth and lens thickness",[1],no effect
O=C(O)Cc1nn(Cc2nc3cc(C(F)(F)F)ccc3s2)c(=O)c2ccccc12 [Zopolrestat],diopter or axial length parameter versus the vehicle group,[1],no significant difference
same,"corneal curvature, anterior chamber depth and lens thickness",[1],no effect
CN1[C@@H]2CC[C@H]1C[C@@H](OC(=O)C(CO)c1ccccc1)C2 (some centres unmarked) [atropine],anterior chamber depth and lens thickness,"[2]; 0.1% atropine, FIG. 15",unaffected
same,pupil,"[2]; 0.1% atropine, all animals tested in this group",pupil dilation
same,effect of preventing or treating myopia,[2]; [10],normal effect for treating myopia
same,therapeutic effect (diopter or axial length parameter),"[3]; FD, 0.01% atropine eye drops, same administration conditions",No therapeutic effect was observed
same,inhibition rate on myopia,"[3]; FD, 1-week, 0.1% atropine",28.1%
same,inhibition rate on myopia,"[3]; FD, 2-week, 0.1% atropine",36.9%
same,elongation of axial length compared with the normal saline group,[3]; [11],significantly inhibit elongation of axial length
same,ocular adverse reactions during the administration,"[3]; FD, eye drop twice per day, 0.5% bendazac lysine, 0.1% atropine",pupil dilation adverse reactions
same,"corneal curvature, anterior chamber and lens","[3]; FD, eye drop twice per day, 0.5% bendazac lysine, 0.1% atropine, FIG. 7",not affected
"O=C(O)COc1nn(Cc2ccccc2)c2ccccc12 [bendazac lysine, L-lysine (1-benzyl-1H-indazol-3-yloxy) acetate]",effect in terms of the parameter diopter,"[4]; FDM, 0.01% bendazac lysine, 2-week, no statistical difference",slightly stronger than the negative control group
same,"progress of myopia, dose-response","[4]; FDM, 0.01%, 0.05%, 0.1%, 0.5% in normal saline, subconjunctival injection 100 μl once daily for 2 weeks",dose-dependently retarded the progress of myopia
same,therapeutic effect on myopia (progress of diopter becoming negative),"[4]; FDM, 0.05% and 0.1% bendazac lysine preparations",significant therapeutic effect on myopia
same,increase in vitreous chamber depth (VCD) and elongation of axial length (AL),"[4]; FDM, 0.05%, 0.1% and 0.5% bendazac lysine, FIG. 3",inhibit the increase in vitreous chamber depth (VCD) and the elongation of axial length (AL)
same,"therapeutic effect on myopia in terms of diopter, compared with 0.1% atropine","[4]; FDM, 0.5% bendazac lysine, 1-week after administration, no statistical difference",better therapeutic effect on myopia than 0.1% atropine
same,"anterior chamber depth, lens thickness and pupil","[4]; guinea pig, in vivo",not affected
same,ocular irritation and ocular abnormalities during administration,"[4]; guinea pig, in vivo",No ocular irritation and any ocular abnormalities were observed
same,"progress of myopia (diopter becoming negative, vitreous chamber depth, axial length)",[5],effectively inhibited the progress of diopter becoming negative
same,ocular abnormalities,[5],no obvious ocular abnormalities
same,"pupil, corneal curvature, anterior chamber depth and lens thickness",[5],not affected
same,mean difference in choroidal thickness between the experimental and the fellow eyes,[6],−6.31 μm
same,induced myopia (diopter),[7]; [12],−3.49±1.15 D
same,myopia inhibition rate compared to the normal saline group,[7]; [12],21.0%
same,elongation of the vitreous chamber depth and the axial length,"[7]; LI, 1 week",inhibited
same,"corneal curvature (RCC), anterior chamber depth (ACD), lens thickness (LT)","[8]; FDM and LIM, 0.5% BDL(S)",unaffected
same,mean difference in choroidal thickness between the experimental eye and the fellow eye,"[8]; FDM, 0.5% bendazac lysine eye drops (BDL(S)) subconjunctival injection 100 μl once daily for 2 weeks, 30-60 min after last administration",−9.20 μm
same,inhibition rate on myopia,"[3]; FD, 1-week, 0.1% atropine",35.5%
same,inhibition rate on myopia,"[3]; FD, 2-week, 0.1% atropine",33.9%
same,elongation of axial length compared with the normal saline group,[3]; [11],significantly inhibit elongation of axial length
same,"corneal curvature, anterior chamber and lens","[3]; guinea pig, in vivo",not affected
same,ocular adverse reactions during the administration,"[3]; guinea pig, in vivo",no obvious ocular abnormalities
same,"corneal curvature (RCC), anterior chamber depth (ACD), lens thickness (LT)","[9]; FD and LI groups, 0.5 mg/day peribulbar injection, FIG. 2",not affected
same,induced myopia (diopter),"[9]; FD, 1-week of administration",−2.15±1.09 D
same,myopia inhibition rate compared with normal saline group,"[9]; FD, 1-week of administration",42.6%
same,induced myopia (diopter),"[9]; FD, 2-week of administration",−3.46 D
same,myopia inhibition rate compared with normal saline group,"[9]; FD, 2-week of administration",43.9%
same,increase in vitreous chamber depth and axial length,"[9]; FD, bendazac lysine 0.5 mg/day peribulbar injection, FIG. 1",inhibited
"O=C(O)COc1nn(Cc2ccccc2)c2ccccc12 [bendazac, α-[(1-benzyl-1H-indazol-3-yl)oxy] acetic acid]",myopia inhibition rate compared with DMSO vehicle control group,[5]; 1-week,33.4%
same,mean difference in the choroidal thickness between the experimental eyes and the fellow eyes,"[5]; 2-week after administration of bendazac alone, FIG. 12",−8.47 μm
same,myopia inhibition rate compared with DMSO vehicle control group,[5]; 2-week,30.1%
same,elongation of axial length and increase of vitreous chamber depth compared with the DMSO vehicle group,"[5]; bendazac alone, statistical difference, FIG. 9",significantly inhibited elongation of axial length and reduced the increase of vitreous chamber depth
NCCCC[C@H](N)C(=O)O [lysine],"progress of myopia (diopter becoming negative, vitreous chamber depth, axial length)",[5],no inhibitory effect on the progress of myopia
same,ocular abnormalities,[5],no obvious ocular abnormalities
same,"pupil, corneal curvature, anterior chamber depth and lens thickness",[5],not affected
m-hydroxy methylaniline,elongation of axial length and increase of vitreous chamber depth,"[2]; 1 week, m-hydroxy methylaniline 5 mM",no inhibitory effect on elongation of axial length and no slowing effect on the increase of vitreous chamber depth
same,effect of preventing or treating myopia,[2]; [10],no effect of preventing or treating myopia
